Among the data in PubChem BioAssay AID504740 (National Center for Advancing Translational Sciences (NCATS), 2011) are percent remaining values, retold here.

The series has as its system mouse plasma stability, LC-MS/MS, 48 h. The experiment in a line: Inhibitors of Bloom's syndrome helicase: Mouse Plasma Stability Profiling. The note with it: at 2 µM; hits give high values. An excerpt: Survival of cells and the faithful propagation of the genome depend on elaborate mechanisms of detecting and repairing DNA damage. Treatment of advanced cancer relies on radiation therapy or chemotherapy, which kill cancer cells by causing extensive DNA damage. It is often found, that cancer cells develop resistance to therapy through enhanced activity of DNA repair functions; this has led to an increased interest in developing drugs that interfere with DNA repair, which could sensitize cancer cells to conventional therapy. Bloom syndrome helicase (BLM), is important in resolving abnormal DNA structures formed during replication or homologous recombination. Shutting down the expression of BLM leads to chromosomal instability and higher radiation sensitivity in cultured cells. After the completion of a qHTS campaign, secondary assays, and rounds of medicinal chemistry, a compound was identified to be further characterized through in vitro ADME assays. The stability of the lead compound in mouse plasma is tested because this parameter has a significant impact on many ADME-concerned properties of drugs, such as uptake, distribution, transport, and bioavailability. […]
2uM of compound is incubated in mouse plasma; the reference compound is procaine. Compounds are incubated at 37 deg C for the pre-determined time periods and the when aliquots are removed. Samples are analyzed with LC-MS/MS.

With `O=C(Nc1ccc(F)c(C(F)(F)F)c1)Nc1nnc(-c2ccncc2)s1`, the percent remaining is 100%.
